Measured values published in patent US20260130933A1, “PHARMACEUTICAL COMPOSITION FOR PREVENTION OR TREATMENT OF NEPHROPATHY AND/OR DIABETES MELLITUS, COMPRISING ENAVOGLIFLOZIN” (DAEWOONG PHARMACEUTICAL CO., LTD., priority 2022, published 2026).

Assay: Example 3: phase 3 trial, enavogliflozin 0.3 mg vs dapagliflozin 10 mg once a day for 24 weeks added to metformin and gemigliptin in patients with type 2 diabetes (same endpoints, rescue drug)
Assay type: in vivo, human
Conditions: week 6
Description: 1) when Metformin (≥1,000 mg/Day) was Administered at a Constant Dose for at Least 8 Weeks Prior to Pre-Visit (Pre-Screening) • Metformin (≥1,000 mg/day) and gemigliptin (50 mg/day) were co-administered during the 8-week stabilization period. […] 4) when Metformin (≥1,000 mg/Day) and Gemigliptin (50 mg/Day) were Co-Administered at Constant Doses for at Least 8 Weeks Prior to Pre-Visit (Prescreening) • Without a separate stabilization period, Pre-visit (pre-screening) was Visit 1 (screening).
Subjects who met the inclusion/exclusion criteria continued to receive metformin and gemigliptin while receiving a placebo of the clinical trial drug in a single-blind (subject-blinded) state for a 2-week run-in period.
Here, the randomized subjects were stratified according to the administration therapy (co-administration with two or less agents (one or two agents) or three or more agents) of a conventional hypoglycemic agent (before washout of another hypoglycemic agent) within 24 weeks prior to obtaining written informed consent and by an HbA1c value (<8% or ≥8%) at Visit 1 (screening) measured in the central laboratory.
The randomized subjects were administered two tablets of the clinical trial drug corresponding to each administration group once a day, and then visited the institution at weeks 6, 12, 18, and 24 during the 24-week administration period to conduct efficacy and safety assessments. In addition, during the clinical trial period, they were instructed to exercise regularly and control their diet without changing their daily life patterns.
• 1) Change in HbA1c at week 24 after administration of clinical trial drug compared to Visit 2 (randomization)
• 1) Change in HbA1c at each time point of weeks 6, 12, and 18 after administration of clinical trial drug compared to Visit 2 (randomization) • 2) Change in FPG at each time point of weeks 6, 12, 18, and 24 after administration of clinical trial drug compared to Visit 2 (randomization) • 3) Proportion of subjects achieving HbA1c<7% at each time point of weeks 6, 12, 18, and 24 after administration of clinical trial drug • 4) Proportion of subjects achieving HbA1c<6.5% at each time point of weeks 6, 12, 18, and 24 after administration of clinical trial drug • 5) Proportion of subjects achieving therapeutic response (HbA1c change (HbA1c at Visit 2—HbA1c at each evaluation time point)>0.5% or HbA1c<7% at each evaluation time point compared to Visit 2 (randomization)) at each time point of weeks 6, 12, 18, and 24 after administration of clinical trial drug • 6) Proportion of subjects achieving therapeutic response (HbA1c change (HbA1c at Visit 2—HbA1c at each evaluation time point)>0.7% or HbA1c<7% at each evaluation time point compared to Visit 2 (randomization)) at each time point of weeks 6, 12, 18, and 24 after administration of clinical trial drug • 7) Proportion of subjects achieving therapeutic response (HbA1c change (HbA1c at Visit 2—HbA1c at each evaluation time point)>1% or HbA1c<7% at each evaluation time point compared to Visit 2 (randomization)) at each time point of weeks 6, 12, 18, and 24 after administration of clinical trial drug

[1] = modified per-protocol set 2, enavogliflozin 0.3 mg, dapagliflozin 10 mg
[2] = per-protocol set, enavogliflozin 0.3 mg vs dapagliflozin 10 mg
[3] = per-protocol set, enavogliflozin 0.3 mg, dapagliflozin 10 mg

With `OC[C@H]1O[C@@H](c2cc(Cc3ccc(C4CC4)cc3)c(Cl)c3c2CCO3)[C@H](O)[C@@H](O)[C@@H]1O` [Enavogliflozin, (2S,3R,4R,5S,6R)-2-(7-chloro-6 (4-cyclopropylbenzyl)-2,3-dihydrobenzofuran-4-yl)-6-(hydroxymethyl)tetrahydro-2H-pyran-3,4,5-triol] the “Change from baseline in diastolic blood pressure, ANCOVA LS mean” value (modified per-protocol set 2) was −2.04 mmHg, the “Change from baseline in diastolic blood pressure, LS mean difference (enavogliflozin − dapagliflozin)” value (modified per-protocol set 2) was −0.16 mmHg and the “Change from baseline in diastolic blood pressure, Mean” value (modified per-protocol set 2) was −2.76 mmHg. For the same compound, the “Change from baseline in diastolic blood pressure, Median” value (modified per-protocol set 2) was −3.00 mmHg, the “Diastolic blood pressure, Mean” value (modified per-protocol set 2) was 73.72 mmHg and the “Diastolic blood pressure, Median” value (modified per-protocol set 2) was 74.00 mmHg. The “Change from baseline in systolic blood pressure, ANCOVA LS mean difference” value (modified per-protocol set 2, enavogliflozin 0.3 mg vs dapagliflozin 10 mg) was 0.73 mmHg, the “Change from baseline in systolic blood pressure, ANCOVA LS mean” value [1] was −2.76 mmHg and the “Change from baseline in systolic blood pressure, Mean” value [1] was −3.67 mmHg. The “Change from baseline in systolic blood pressure, Median” value [1] was −3.00 mmHg, the “Systolic blood pressure, Mean” value [1] was 124.04 mmHg and the “Systolic blood pressure, Median” value [1] was 123.00 mmHg. For the same compound, the “Adiponectin, Mean” value (per-protocol set) was 6.20 µg/mL, the “Adiponectin, Median” value (per-protocol set) was 5.40 µg/mL and the “Change from baseline in HOMA-IR, ANCOVA LS mean” value (per-protocol set) was −0.94. The “Change from baseline in HOMA-IR, LS mean difference (enavogliflozin − dapagliflozin)” value (per-protocol set) was 0.05, the “Change from baseline in HOMA-IR, Mean” value (per-protocol set) was −0.90 and the “Change from baseline in HOMA-IR, Median” value (per-protocol set) was −0.68. The “Change from baseline in HOMA-β, ANCOVA LS mean” value (per-protocol set) was 8.13, the “Change from baseline in HOMA-β, LS mean difference (enavogliflozin − dapagliflozin)” value (per-protocol set) was 4.93 and the “Change from baseline in HOMA-β, Mean” value (per-protocol set) was 8.74. For the same compound, the “Change from baseline in HOMA-β, Median” value (per-protocol set) was 4.35, the “Change from baseline in UACR, ANCOVA LS mean” value (per-protocol set) was -8.76 g/kg and the “Change from baseline in UACR, LS mean difference (enavogliflozin − dapagliflozin)” value (per-protocol set) was 6.09 g/kg. The “Change from baseline in UACR, Mean” value (per-protocol set) was -11.43 g/kg, the “Change from baseline in UACR, Median” value (per-protocol set) was -0.50 g/kg and the “Change from baseline in UGCR, ANCOVA LS mean” value (per-protocol set) was 58.10 mg/mg. The “Change from baseline in UGCR, LS mean difference (enavogliflozin − dapagliflozin)” value (per-protocol set) was 12.35 mg/mg, the “Change from baseline in UGCR, Mean” value (per-protocol set) was 56.38 mg/mg and the “Change from baseline in UGCR, Median” value (per-protocol set) was 54.10 mg/mg. The “Change from baseline in adiponectin, ANCOVA LS mean” value (per-protocol set) was -0.10 µg/mL, the “Change from baseline in adiponectin, LS mean difference (enavogliflozin − dapagliflozin)” value (per-protocol set) was -0.47 µg/mL and the “Change from baseline in adiponectin, Mean” value (per-protocol set) was -0.08 µg/mL. The “Change from baseline in adiponectin, Median” value (per-protocol set) was 0.50 µg/mL, the “Change from baseline in leptin, ANCOVA LS mean” value (per-protocol set) was -1.83 ng/mL and the “Change from baseline in leptin, LS mean difference (enavogliflozin − dapagliflozin)” value (per-protocol set) was 0.20 ng/mL. For the same compound, the “Change from baseline in leptin, Mean” value (per-protocol set) was -1.75 ng/mL, the “Change from baseline in leptin, Median” value (per-protocol set) was -0.94 ng/mL and the “HOMA-IR (insulin resistance), Mean” value (per-protocol set) was 2.00. For the same compound, the “HOMA-IR (insulin resistance), Median” value (per-protocol set) was 1.54, the “HOMA-β (beta-cell function), Mean” value (per-protocol set) was 51.08 and the “HOMA-β (beta-cell function), Median” value (per-protocol set) was 38.70. For the same compound, the “Leptin, Mean” value (per-protocol set) was 8.88 ng/mL, the “Leptin, Median” value (per-protocol set) was 6.26 ng/mL and the “UACR, Mean” value (per-protocol set) was 36.67 g/kg. The “UACR, Median” value (per-protocol set) was 14.80 g/kg, the “UGCR, Mean” value (per-protocol set) was 57.09 mg/mg and the “UGCR, Median” value (per-protocol set) was 54.57 mg/mg. The “Achieving HbA1c target of <6.5%, odds ratio (logistic regression model)” value [2] was 0.65, the “Achieving HbA1c target of <7%, odds ratio (logistic regression model)” value [2] was 1.22 and the “Change from baseline in FPG, ANCOVA LS mean difference” value [2] was -3.24 mg/dL. For the same compound, the “Change from baseline in HbA1c, ANCOVA LS mean difference” value [2] was −0.03 % p, the “Change from baseline in body weight, ANCOVA LS mean difference” value [2] was -0.13 kg and the “Change from baseline in fasting C-peptide, ANCOVA LS mean difference” value [2] was -0.01 ng/mL. For the same compound, the “Therapeutic glycemic response 1, odds ratio (logistic regression model)” value [2] was 1.52, the “Therapeutic glycemic response 2, odds ratio (logistic regression model)” value [2] was 1.16 and the “Therapeutic glycemic response 3, odds ratio (logistic regression model)” value [2] was 1.38. The “Body weight, Mean” value [3] was 67.13 kg, the “Change from baseline in FPG, ANCOVA LS mean” value [3] was -25.96 mg/dL and the “Change from baseline in FPG, Mean” value [3] was -25.72 mg/dL. For the same compound, the “Change from baseline in FPG, Median” value [3] was -24.50 mg/dL, the “Change from baseline in HbA1c, ANCOVA LS mean” value [3] was −0.73 % p and the “Change from baseline in HbA1c, Mean” value [3] was −0.74 % p. For the same compound, the “Change from baseline in HbA1c, Median” value [3] was −0.65 % p, the “Change from baseline in body weight, ANCOVA LS mean” value [3] was -1.92 kg and the “Change from baseline in body weight, Mean” value [3] was -1.87 kg. For the same compound, the “Change from baseline in body weight, Median” value [3] was -1.90 kg, the “Change from baseline in fasting C-peptide, ANCOVA LS mean” value [3] was -0.05 ng/mL and the “Change from baseline in fasting C-peptide, Mean” value [3] was -0.06 ng/mL. For the same compound, the “Change from baseline in fasting C-peptide, Median” value [3] was -0.07 ng/mL, the “FPG, Mean” value [3] was 114.21 mg/dL and the “FPG, Median” value [3] was 113.00 mg/dL.
